PubChem BioAssay (NCI)
Values joined by “and” are separate entries in the source; they are usually repeats but may differ in a detail not shown here. Equal entries are not always repeated.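 Exposure lasted 48 hours, with cells grown in 96-well plates and compounds tested at five concentrations. GI50 is the concentration that inhibits growth by half. The concentration for full growth arrest is given as TGI.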

Columns and labels:
Assay in all cases: NCI tumour cell line growth inhibition, 48 h
[1] = tested on: OVCAR-4 ovarian
[2] = tested on: K-562 leukemia
[3] = tested on: M14 melanoma
[4] = tested on: UACC-257 melanoma
[5] = tested on: HS 578T breast
[6] = tested on: NCI-H23 lung
[7] = tested on: SK-MEL-28 melanoma
[8] = tested on: HT29 colon
[9] = tested on: HOP-62 NSCLC
[10] = tested on: IGROV1 ovarian

SMILES | GI50 [1] [µM] | TGI [1] [µM] | GI50 [2] [µM] | TGI [2] [µM] | GI50 [3] | TGI [3] | GI50 [4] [µM] | TGI [4] [µM] | GI50 [5] [µM] | TGI [5] [µM] | GI50 [6] [µM] | TGI [6] | GI50 [7] | TGI [7] [µM] | GI50 [8] | TGI [8] [µM] | GI50 [9] [µM] | TGI [9] [µM] | TGI [10] [µM] | GI50 [10] [µM]
CC(C)(C)OC(=O)NCCCCCCCCCCCCn1c2c(c3ccccc3c1=O)C(=O)c1ccccc1-2 | > 100 | > 100 | 46.9 | > 100 | > 100 µM | > 100 µM | > 100 | > 100 | 11.9 | 63.1 | 36.9 | > 100 µM | > 100 µM | > 100 | > 100 µM | > 100 | 32.7 | > 100 | – | –
CC(C)C(Br)C(=O)NCC(=O)O (stereo unspecified) | – | > 100 | – | > 100 | – | > 100 µM | – | > 100 | – | > 100 | – | > 100 µM | – | > 100 | – | > 100 | – | > 100 | > 100 | –
S=C(Nc1ccc(-c2nc3ccccc3s2)cc1)Nc1ccc(-c2nc3ccccc3s2)cc1 | 24.4 | 99.4 | 26.4 | 87.6 | 21.6 µM | 46.1 µM | 24.5 | 48 | 17.8 | 47.4 | 21.1 | 44.9 µM | 22.3 µM | 54.8 | 20.7 µM | 55.9 | 37.5 | > 100 | 41.7 | 13
CN1C2C=CC(=O)C1C(C#N)C2 (stereo unspecified) | – | – | – | > 100 | 29.5 µM and 69.1 µM | 89.7 µM and > 100 µM | – | – | – | > 100 | – | 87.9 µM and > 100 µM | 30 µM and > 100 µM | > 100 | 31.8 µM and 90.5 µM | > 100 | – | > 100 | > 100 | –
COc1ccc(C(=O)Cn2c(C(=O)c3ccc(Cl)cc3)nc(-c3ccccc3)c2-c2ccccc2)cc1 | 94.2 | > 100 | > 100 | > 100 | > 100 µM | > 100 µM | > 100 | > 100 | 44.1 | > 100 | > 100 | > 100 µM | > 100 µM | > 100 | > 100 µM | > 100 | > 100 | > 100 | > 100 | 67.1
CN(C)CCN=c1nc2c(c(N)n1-c1ccccc1)c(=S)n(-c1ccccc1)c(=S)n2-c1ccccc1 | 2.98 | 9.01 | 3.6 | – | 1.69 µM | 3.81 µM | 1.91 | 3.75 | 1.98 | 9.51 | 13.2 | 31.9 µM | 0.867 µM | 2.33 | 1.48 µM | 3.82 | 2.73 | 10.8 | 23 | 8.09
COc1ccc(CN2c3ccccc3Sc3ccccc32)cc1O | 0.726 | 19.3 | 0.365 | 26.6 | 0.383 µM | 18.6 µM | – | – | 0.933 | 46 | 0.364 | 13.2 µM | 14.4 µM | 32.2 | 0.724 µM | 6.4 | 0.384 | 17.4 | 21.3 | 1.93
